Among the data in patent US9682985B2, “(Indazol-4-yl) hexahydropyrrolopyrrolones and methods of use” (AbbVie Inc., priority 2015, dated 2017) are IC50 values, retold here.

Molecules are shown by their SMILES.

In this experiment the target is T1, recombinant human Nav1.7 (Homo sapiens, UniProt Q15858).
T1 construct: expressed in transfected cells; host or cells: HEK293
T1 sequence (Q15858 whole entry): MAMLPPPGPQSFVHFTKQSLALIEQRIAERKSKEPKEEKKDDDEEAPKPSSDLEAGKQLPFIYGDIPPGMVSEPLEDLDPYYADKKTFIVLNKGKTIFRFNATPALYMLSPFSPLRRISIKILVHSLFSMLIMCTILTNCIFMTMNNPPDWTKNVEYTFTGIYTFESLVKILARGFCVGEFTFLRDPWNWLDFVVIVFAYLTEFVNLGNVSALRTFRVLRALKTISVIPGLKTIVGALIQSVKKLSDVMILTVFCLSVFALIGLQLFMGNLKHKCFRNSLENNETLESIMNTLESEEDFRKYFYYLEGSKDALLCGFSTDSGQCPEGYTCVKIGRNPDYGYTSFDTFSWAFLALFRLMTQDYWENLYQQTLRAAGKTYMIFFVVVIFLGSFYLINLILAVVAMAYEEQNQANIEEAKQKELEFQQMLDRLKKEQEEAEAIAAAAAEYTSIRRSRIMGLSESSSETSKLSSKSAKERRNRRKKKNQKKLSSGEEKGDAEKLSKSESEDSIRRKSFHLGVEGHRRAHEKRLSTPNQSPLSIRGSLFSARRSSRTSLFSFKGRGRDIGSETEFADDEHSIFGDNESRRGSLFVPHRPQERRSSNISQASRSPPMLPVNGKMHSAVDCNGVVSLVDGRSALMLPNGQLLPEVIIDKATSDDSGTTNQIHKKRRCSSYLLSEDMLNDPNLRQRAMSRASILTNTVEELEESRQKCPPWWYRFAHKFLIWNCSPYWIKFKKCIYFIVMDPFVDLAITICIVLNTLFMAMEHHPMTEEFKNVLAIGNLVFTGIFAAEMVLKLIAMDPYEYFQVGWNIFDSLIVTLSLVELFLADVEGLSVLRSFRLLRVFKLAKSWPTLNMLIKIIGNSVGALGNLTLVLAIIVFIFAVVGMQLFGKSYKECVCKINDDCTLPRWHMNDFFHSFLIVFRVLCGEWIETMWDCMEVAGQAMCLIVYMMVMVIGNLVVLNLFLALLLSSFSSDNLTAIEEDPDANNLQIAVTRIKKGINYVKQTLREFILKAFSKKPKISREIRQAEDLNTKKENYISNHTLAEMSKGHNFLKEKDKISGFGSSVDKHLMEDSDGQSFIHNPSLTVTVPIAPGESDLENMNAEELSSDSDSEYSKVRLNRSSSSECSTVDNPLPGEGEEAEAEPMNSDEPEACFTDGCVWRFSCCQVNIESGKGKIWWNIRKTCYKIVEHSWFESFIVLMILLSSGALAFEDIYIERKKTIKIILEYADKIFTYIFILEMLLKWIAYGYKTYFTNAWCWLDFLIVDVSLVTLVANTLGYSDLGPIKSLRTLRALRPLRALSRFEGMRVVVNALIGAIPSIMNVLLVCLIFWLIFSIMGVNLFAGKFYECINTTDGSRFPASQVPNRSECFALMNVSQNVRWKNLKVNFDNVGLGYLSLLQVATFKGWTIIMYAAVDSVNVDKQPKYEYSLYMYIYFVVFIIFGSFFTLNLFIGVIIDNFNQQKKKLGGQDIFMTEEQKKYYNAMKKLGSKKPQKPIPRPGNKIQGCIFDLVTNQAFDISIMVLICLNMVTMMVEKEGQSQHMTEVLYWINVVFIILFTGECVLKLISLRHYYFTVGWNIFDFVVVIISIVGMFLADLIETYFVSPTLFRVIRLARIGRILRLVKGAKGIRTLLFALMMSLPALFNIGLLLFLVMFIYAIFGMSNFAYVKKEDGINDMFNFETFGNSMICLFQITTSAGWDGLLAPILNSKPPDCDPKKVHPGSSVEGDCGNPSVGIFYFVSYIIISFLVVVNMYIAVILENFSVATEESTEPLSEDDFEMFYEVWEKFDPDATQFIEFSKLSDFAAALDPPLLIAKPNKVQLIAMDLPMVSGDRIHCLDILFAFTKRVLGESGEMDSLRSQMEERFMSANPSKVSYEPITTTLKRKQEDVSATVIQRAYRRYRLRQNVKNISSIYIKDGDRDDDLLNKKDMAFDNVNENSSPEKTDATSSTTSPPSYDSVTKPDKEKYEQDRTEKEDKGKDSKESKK
As to the kind of experiment: FRET-based membrane potential assay, Nav1.7. In kind it is cell-based. As to conditions: HEK293 cells expressing recombinant human Nav1.7; veratridine + scorpion venom depolarization.
Take `O=C(NCc1cnco1)N1C[C@H]2CN(c3cccc4c3cnn4-c3ccccc3F)C(=O)[C@H]2C1` (relative stereo) [Example 13, rel-(3aR,6aR)-5-[1-(2-fluorophenyl)-1H-indazol-4-yl]-N-(1,3-oxazol-5-ylmethyl)-4-oxohexahydropyrrolo[3,4-c]pyrrole-2(1H)-carboxamide]: the IC50 worked out at 11.1 µM. With `CN(C)C(=O)N1C[C@H]2CN(c3cccc4c3cnn4-c3ccccc3F)C(=O)[C@H]2C1` (relative stereo) [Example 15, rel-(3aR,6aR)-5-[1-(2-fluorophenyl)-1H-indazol-4-yl]-N,N-dimethyl-4-oxohexahydropyrrolo[3,4-c]pyrrole-2(1H)-carboxamide], the IC50 was found to be 7.57 µM. Turning to `CC(=O)N1C[C@@H]2CN(c3cccc4c3cnn4-c3ccccc3F)C(=O)[C@H]2C1` (relative stereo) [Example 17, rel-(3aR,6aR)-5-acetyl-2-[1-(2-fluorophenyl)-1H-indazol-4-yl]hexahydropyrrolo[3,4-c]pyrrol-1(2H)-one], the IC50 came to 8.93 µM. As to `CC(C)C(=O)N1C[C@@H]2CN(c3cccc4c3cnn4-c3ccccc3F)C(=O)[C@@H]2C1` [Example 20, (3aR,6aS)-2-[1-(2-fluorophenyl)-1H-indazol-4-yl]-5-isobutyrylhexahydropyrrolo[3,4-c]pyrrol-1(2H)-one], the IC50 amounted to 4.48 µM. Turning to `CS(=O)(=O)N1C[C@@H]2CN(c3cccc4c3cnn4-c3ccccc3F)C(=O)[C@@H]2C1` [Example 22, (3aS,6aS)-2-[1-(2-fluorophenyl)-1H-indazol-4-yl]-5-(methylsulfonyl)hexahydropyrrolo[3,4-c]pyrrol-1(2H)-one], the IC50 is 6.72 µM. As for `O=C1[C@@H]2CN(S(=O)(=O)c3cccnc3)C[C@@H]2CN1c1cccc2c1cnn2-c1ccccc1F` [Example 27, (3aS,6aS)-2-[1-(2-fluorophenyl)-1H-indazol-4-yl]-5-(pyridin-3-ylsulfonyl)hexahydropyrrolo[3,4-c]pyrrol-1(2H)-one], the IC50 turned out to be 3.62 µM. For `O=C1[C@@H]2CN(S(=O)(=O)C3CC3)C[C@@H]2CN1c1cccc2c1cnn2-c1ccccc1F` [Example 28, (3aS,6aS)-5-(cyclopropylsulfonyl)-2-[1-(2-fluorophenyl)-1H-indazol-4-yl]hexahydropyrrolo[3,4-c]pyrrol-1(2H)-one] the value was 3.82 µM; for `CC(C)(C)OC(=O)N1CCC(S(=O)(=O)N2CC3CN(c4cccc5c4cnn5-c4ccccc4F)C(=O)C3C2)CC1` [Example 30, tert-butyl 4-{[(3aS,6aS)-5-[1-(2-fluorophenyl)-1H-indazol-4-yl]-4-oxohexahydropyrrolo[3,4c]-pyrrol-2(1H)-yl]sulfonyl}piperidine-1-carboxylate], 3.62 µM.

Turning to `Cc1noc(C)c1CC(=O)N1C[C@@H]2CN(c3cccc4c3cnn4-c3ccccc3F)C(=O)[C@@H]2C1` [Example 33, (3aR,6aS)-5-[(3,5-dimethyl-1,2-oxazol-4-yl)acetyl]-2-[1-(2-fluorophenyl)-1H-indazol-4-yl]hexahydropyrrolo[3,4-c]pyrrol-1(2H)-one], the IC50 was determined as 13.3 µM.

Turning to `C[C@H](O)CC(=O)N1C[C@@H]2CN(c3cccc4c3cnn4-c3ccccc3F)C(=O)[C@@H]2C1` [Example 36, (3aR,6aS)-2-[1-(2-fluorophenyl)-1H-indazol-4-yl]-5-[(3S)-3-hydroxybutanoyl]hexahydropyrrolo[3,4-c]pyrrol-1(2H)-one], the IC50 came out at 11.5 µM.

Regarding `C[C@@H](O)CC(=O)N1C[C@H]2CN(c3cccc4c3cnn4-c3ccccc3F)C(=O)[C@H]2C1` [Example 38, (3aS,6aR)-2-[1-(2-fluorophenyl)-1H-indazol-4-yl]-5-[(3R)-3-hydroxybutanoyl]hexahydropyrrolo[3,4-c]pyrrol-1(2H)-one], the IC50 came to 6.4 µM. With `C[C@@H](O)CC(=O)N1C[C@@H]2CN(c3cccc4c3cnn4-c3ccccc3F)C(=O)[C@@H]2C1` [Example 39, (3aR,6aS)-2-[1-(2-fluorophenyl)-1H-indazol-4-yl]-5-[(3R)-3-hydroxybutanoyl]hexahydropyrrolo[3,4-c]pyrrol-1(2H)-one], the IC50 worked out at 14.6 µM.

As usually defined, the IC50 is the concentration that gives 50% inhibition.
